Publication PMC12615753, “Glutathione as a taste modulator: molecular mechanisms of interaction with umami and sweet taste receptors” (Food Chemistry: Molecular Sciences, 2025)

Molecular target: T1, hTAS1R2/hTAS1R3(r570–858) (Homo sapiens, UniProt Q7RTX0+Q8TE23, A579V/A607F/A718V/A733V/A735I/A808T/C675Y/C757R/D670N/F730L/G674S/G822E/H593Y/H712Q/L571S/L639M/L789Y/L798I/L800F/L816V/M689T/M713V/M818L/P605S/P630S/P826Q/Q627R/Q820L/R594W/R632S/R671W/R752Q/R790Q/R813K/R819W/S577C/S629R/S640A/S673C/T697A/T724M/T739V/T774I/V583T/V612I/V617F/V693A/V701M/V720E/V788A/V802A)
T1 construct: hTAS1R3(r570–858) consists of the N-terminal extracellular domain of hTAS1R3 and the TMD of rTAS1R3; TMD of rTAS1R3 (r570–858); expressed in transfected cells
Assay: Calcium assay, chimeric TAS1R3 co-expressed with hTAS1R2
Type: cell-based, rat
Excerpt: Chimeric Gα proteins, such as Gα16Gust44, Gα16Gi3 or Gα15i2, are widely used in the functional expression of TAS1R receptors ([Backes et al., 2015]; [Suess et al., 2015]; [Toda et al., 2021], [Toda et al., 2013], [Toda et al., 2018]; [Zhang et al., 2008]). Chimeric Gα15i2 (([Toda et al., 2013]), Supplementary data) was generated by replacing the last five residues of the C-terminal tail of rat Gα15i2 (EINLL) (UniProt number G3V6N8; https://www.uniprot.org/uniprot/) with the counterpart sequence from human GNAI2 (DCGLF) (UniProt number P04899-1) and cloning into the pcDNA3.1/Hygro vector (Invitrogen, Thermo Fisher Scientific, Illkirch, France) between the HindIII and NotI restriction sites, resulting in the plasmid pcDNA3.1-Gα15i2. Chimeric Gα16Gust44 construct have already been reported ([Raliou et al., 2011]). Briefly, Gα16Gust44 was generated by replacing the C-terminal of Gα16 with the C-terminal 44 residues of gustducin. As previously described, hTAS1R1 was amplified from human fungiform papillae cDNA and cloned and inserted into pcDNA3 (Invitrogen), generating pcDNA3-TAS1R1-WT (wild-type) ([Raliou et al., 2011]). […]

T1 sequence (Q8TE23 20-839, stated change not applied): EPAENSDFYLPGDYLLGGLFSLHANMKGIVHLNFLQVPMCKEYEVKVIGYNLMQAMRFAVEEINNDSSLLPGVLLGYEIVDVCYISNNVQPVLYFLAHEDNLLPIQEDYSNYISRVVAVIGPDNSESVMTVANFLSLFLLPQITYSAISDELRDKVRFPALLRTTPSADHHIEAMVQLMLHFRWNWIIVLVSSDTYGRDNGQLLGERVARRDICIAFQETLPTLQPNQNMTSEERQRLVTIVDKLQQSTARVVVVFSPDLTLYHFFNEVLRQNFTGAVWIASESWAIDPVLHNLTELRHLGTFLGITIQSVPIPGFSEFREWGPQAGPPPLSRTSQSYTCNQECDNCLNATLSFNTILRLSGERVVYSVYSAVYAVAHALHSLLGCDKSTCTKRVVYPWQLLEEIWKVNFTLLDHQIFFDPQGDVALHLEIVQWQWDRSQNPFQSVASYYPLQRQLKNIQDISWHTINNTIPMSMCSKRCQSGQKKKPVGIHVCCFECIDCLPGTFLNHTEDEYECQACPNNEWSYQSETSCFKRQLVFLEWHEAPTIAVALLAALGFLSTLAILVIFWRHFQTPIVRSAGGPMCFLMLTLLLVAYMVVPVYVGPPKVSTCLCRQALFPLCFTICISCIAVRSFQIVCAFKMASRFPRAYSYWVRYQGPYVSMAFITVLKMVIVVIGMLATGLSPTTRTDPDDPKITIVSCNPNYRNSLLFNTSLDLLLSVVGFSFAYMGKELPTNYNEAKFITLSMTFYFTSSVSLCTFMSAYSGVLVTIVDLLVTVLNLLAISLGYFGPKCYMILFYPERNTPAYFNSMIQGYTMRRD
T1 sequence (Q7RTX0 with tags, fused parts or gaps with the stated changes limits assumed): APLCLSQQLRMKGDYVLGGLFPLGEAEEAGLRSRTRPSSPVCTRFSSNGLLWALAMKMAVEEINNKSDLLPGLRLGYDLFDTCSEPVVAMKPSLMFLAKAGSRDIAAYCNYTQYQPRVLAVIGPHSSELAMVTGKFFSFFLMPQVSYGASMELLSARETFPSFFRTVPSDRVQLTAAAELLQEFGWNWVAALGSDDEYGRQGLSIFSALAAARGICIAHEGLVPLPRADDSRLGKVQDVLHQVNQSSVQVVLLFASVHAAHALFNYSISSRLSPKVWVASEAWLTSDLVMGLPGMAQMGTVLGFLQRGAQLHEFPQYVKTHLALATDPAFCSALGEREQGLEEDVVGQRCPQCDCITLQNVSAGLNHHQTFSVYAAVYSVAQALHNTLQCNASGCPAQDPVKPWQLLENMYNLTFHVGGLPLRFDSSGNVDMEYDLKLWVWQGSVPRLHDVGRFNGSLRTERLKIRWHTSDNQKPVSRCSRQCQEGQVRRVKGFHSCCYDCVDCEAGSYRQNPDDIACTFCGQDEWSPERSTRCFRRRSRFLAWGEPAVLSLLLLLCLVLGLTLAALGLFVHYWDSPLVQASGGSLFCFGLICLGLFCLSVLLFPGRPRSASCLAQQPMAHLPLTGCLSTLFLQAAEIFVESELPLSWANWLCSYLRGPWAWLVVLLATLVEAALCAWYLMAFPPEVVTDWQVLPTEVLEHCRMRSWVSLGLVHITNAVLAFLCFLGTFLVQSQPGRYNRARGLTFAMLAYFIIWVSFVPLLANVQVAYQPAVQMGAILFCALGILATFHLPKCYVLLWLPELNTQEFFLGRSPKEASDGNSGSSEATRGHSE

Compound | effect of GSH on the response to sucralose | EC50 (sucralose alone, Fig. 3B)
N[C@@H](CCC(=O)N[C@@H](CS)C(=O)NCC(=O)O)C(=O)O [GSH, γ-L-glutamyl-L-cysteinyl-glycine] | unaffected | –
OC[C@H]1O[C@H](O[C@]2(CCl)O[C@H](CCl)[C@@H](O)[C@@H]2O)[C@H](O)[C@@H](O)[C@H]1Cl [sucralose, reference compound] | – | 67 ± 1 µM
